Converted amounts (≈) assume the structure as drawn. Structures can show the parent of a compound that is named as a salt. Where two headings read alike, the source gives them in different places.
Experiments:
[1] = test system: Lacticaseibacillus rhamnosus DY801; test: Antibiotic sensitivity by broth trace-dilution method (MIC); type: cell-based; conditions: for MIC: Lacticaseibacillus rhamnosus, read-out: Detected MIC; for Determination of the reading: sensitivity of DY801 to the antibiotic according to the General Standard
Experimental: In the present example, the sensitivity of Lacticaseibacillus rhamnosus DY801 against eight antibiotics was tested using the broth trace-dilution method according to “the General Standard of Probiotics for Food Use” (hereinafter referred as General Standard) published by the Chinese Institute of Food Science and Technology. The eight antibiotics were: tetracycline, streptomycin, ciprofloxacin hydrochloride, clindamycin, vancomycin, chloramphenicol, ampicillin and gentamicin. […] The minimum inhibitory concentration (hereinafter referred as MIC) of Lacticaseibacillus rhamnosus DY801 for each antibiotic was read after 48 hours. The strain thereof was determined to be sensitive(S), intermediate (I), resistant (R) and not required (n.r.) for the antibiotic according to the bacterial resistance criteria provided in the General Standard, and the results are shown in Table 2.

[2] = test system: Lacticaseibacillus rhamnosus DY801; conditions: bacterial resistance criteria of the General Standard of Probiotics for Food Use; cited from earlier work
[3] = DY801 suspension 1×10^8 CFU/mL, anaerobic 37° C., read after 48 hours

| Molecule | MIC [1, 3] [µg/mL] | Determination of the reading [1] | MIC in the General Standard [2] [µg/mL] | Detected MIC [1, 3] [µg/mL] | MIC ([1]; DY801, 48 h) [µg/mL] |
| --- | --- | --- | --- | --- | --- |
| CC1(C)S[C@@H]2[C@H](NC(=O)[C@H](N)c3ccccc3)C(=O)N2[C@H]1C(=O)O [ampicillin] | 4 (≈ 11.4 µM) | S | 4 (≈ 11.4 µM) |  |  |
| O=C(N[C@H](CO)[C@H](O)c1ccc([N+](=O)[O-])cc1)C(Cl)Cl [chloromycetin, chloramphenicol] |  | S | 4 (≈ 12.4 µM) | 2 |  |
| O=C(O)c1cn(C2CC2)c2cc(N3CCNCC3)c(F)cc2c1=O [ciprofloxacin hydrochloride] | 64 |  |  |  |  |
| CCC[C@@H]1C[C@@H](C(=O)N[C@@H]([C@H]2O[C@H](SC)[C@H](O)[C@@H](O)[C@H]2O)[C@H](C)Cl)N(C)C1 [clindamycin] | 4 (≈ 9.41 µM) | S |  | 4 |  |
| [H]/N=C(/N)N[C@H]1[C@H](O)[C@@H](O)[C@H](O[C@@H]2O[C@@H](C)[C@](O)(C=O)[C@H]2O[C@@H]2O[C@@H](CO)[C@H](O)[C@@H](O)[C@@H]2NC)[C@@H](N/C(N)=N\[H])[C@@H]1O [streptomycin] | 32 (≈ 55 µM) | S | 32 (≈ 55 µM) |  |  |
| CN(C)[C@@H]1C(O)=C(C(N)=O)C(=O)[C@@]2(O)C(O)=C3C(=O)c4c(O)cccc4[C@@](C)(O)[C@H]3C[C@@H]12 [tetracycline] | 8 (≈ 18 µM) | S |  |  |  |
| CN[C@H](CC(C)C)C(=O)N[C@H]1C(=O)N[C@@H](CC(N)=O)C(=O)N[C@H]2C(=O)N[C@H]3C(=O)N[C@H](C(=O)N[C@H](C(=O)O)c4cc(O)cc(O)c4-c4cc3ccc4O)[C@H](O)c3ccc(c(Cl)c3)Oc3cc2cc(c3O[C@@H]2O[C@H](CO)[C@@H](O)[C@H](O)[C@H]2O[C@H]2C[C@](C)(N)[C@H](O)[C@H](C)O2)Oc2ccc(cc2Cl)[C@H]1O [vancomycin] |  |  |  |  | 64 (≈ 44.2 µM) |
| gentamicin [gentamycin] |  | S | 16 | 16 |  |

Source: patent US20250312394A1, “Lacticaseibacillus Rhamnosus DY801 and Application Thereof” (priority 2024, published 2025)
